Data: ChEMBL document CHEMBL1201862, “PubChem BioAssay data set” (2004)
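All cell lines were grown in 96-well plates and treated with compound for 48 hours. At the GI50, growth is halved.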 The source made the active and inactive calls. No stated cut-off is given here; in the data, active = GI50 up to about 1.1 µM and inactive = higher.

What was measured:
Assay in all cases: NCI tumour cell line growth inhibition, 48 h
ACHN = system: ACHN
M19-MEL = system: M19-MEL
SR = system: SR
RXF 393 = system: RXF 393
SW-620 = system: SW-620
UACC-62 = system: UACC-62
MOLT-4 = system: MOLT-4
SNB-19 = system: SNB-19
TK-10 = system: TK-10
HCT-15 = system: HCT-15
UO-31 = system: UO-31
HOP-62 = system: HOP-62
UACC-257 = system: UACC-257
LXFL 529 = system: LXFL 529
KM-20L2 = system: KM-20L2
A498 = system: A498
COLO 205 = system: COLO 205
A549 = system: A549
KM12 = system: KM12
HCT-116 = system: HCT-116
CCRF-CEM = system: CCRF-CEM
XF498 = system: XF498
786-0 = system: 786-0
K562 = system: K562
CAKI-1 = system: CAKI-1
OVCAR-8 = system: OVCAR-8
DMS-273 = system: DMS-273
DMS-114 = system: DMS-114
NCI-H522 = system: NCI-H522
SK-OV-3 = system: SK-OV-3
SF-539 = system: SF-539
OVCAR-4 = system: OVCAR-4
LOX IMVI = system: LOX IMVI
EKVX = system: EKVX
Malme-3M = system: Malme-3M
SNB-78 = system: SNB-78
OVCAR-3 = system: OVCAR-3
SF-295 = system: SF-295
HT-29 = system: HT-29
HOP-92 = system: HOP-92
NCI-H226 = system: NCI-H226
NCI-H23 = system: NCI-H23
HCC 2998 = system: HCC 2998
SN12C = system: SN12C
SF-268 = system: SF-268
HL-60 = system: HL-60
SK-MEL-2 = system: SK-MEL-2
SK-MEL-5 = system: SK-MEL-5
NCI-H460 = system: NCI-H460
DLD-1 = system: DLD-1
IGROV-1 = system: IGROV-1
HOP-18 = system: HOP-18
U-251 = system: U-251
RXF 631 = system: RXF 631
RPMI-8226 = system: RPMI-8226
SNB-75 = system: SNB-75
M14 = system: M14
SK-MEL-28 = system: SK-MEL-28
OVCAR-5 = system: OVCAR-5
MCF7 = system: MCF7
Hs-578T = system: Hs-578T
T47D = system: T47D
BT-549 = system: BT-549
MDA-MB-435 = system: MDA-MB-435
DU-145 = system: DU-145
NCI/ADR-RES = system: NCI/ADR-RES
PC-3 = system: PC-3
MDA-MB-231 = system: MDA-MB-231
MDA-N = system: MDA-N

## Cc1c(C(=O)C/C(=N/NC(=O)CC#N)C(N)=O)[n+]([O-])c2ccccc2[n+]1[O-]
ACHN
  GI50: 54 µM (inactive)
M19-MEL
  GI50: 21.8 µM (inactive)
SR
  GI50: 46.1 µM (inactive)
RXF 393
  GI50: > 100 µM (inactive)
SW-620
  GI50: 17.7 µM (inactive)
UACC-62
  GI50: 33 µM (inactive)
MOLT-4
  GI50: 35.6 µM (inactive)
SNB-19
  GI50: > 100 µM (inactive)
TK-10
  GI50: > 100 µM (inactive)
HCT-15
  GI50: 25.9 µM
UO-31
  GI50: > 100 µM (inactive)
HOP-62
  GI50: > 100 µM (inactive)
UACC-257
  GI50: 35.9 µM (inactive)
LXFL 529
  GI50: 74.1 µM (inactive)
KM-20L2
  GI50: 45.2 µM (inactive)
A498
  GI50: > 100 µM (inactive)
COLO 205
  GI50: 34.6 µM (inactive)
A549
  GI50: > 100 µM (inactive)
KM12
  GI50: 28 µM (inactive)
HCT-116
  GI50: 28.1 µM (inactive)
CCRF-CEM
  GI50: 35.1 µM (inactive)
XF498
  GI50: > 100 µM (inactive)
786-0
  GI50: > 100 µM (inactive)
K562
  GI50: 52.1 µM (inactive)
CAKI-1
  GI50: > 100 µM (inactive)
OVCAR-8
  GI50: 34.2 µM (inactive)
DMS-273
  GI50: 42 µM (inactive)
DMS-114
  GI50: 23.8 µM (inactive)
NCI-H522
  GI50: 19.8 µM (inactive)
SK-OV-3
  GI50: > 100 µM (inactive)
SF-539
  GI50: 37.8 µM (inactive)
OVCAR-4
  GI50: 32.7 µM (inactive)
LOX IMVI
  GI50: 34.3 µM (inactive)
EKVX
  GI50: > 100 µM (inactive)
Malme-3M
  GI50: 32.3 µM (inactive)
SNB-78
  GI50: 88.3 µM (inactive)
OVCAR-3
  GI50: 22.9 µM (inactive)
SF-295
  GI50: > 100 µM (inactive)
HT-29
  GI50: 78 µM (inactive)
HOP-92
  GI50: > 100 µM (inactive)
NCI-H226
  GI50: > 100 µM (inactive)
NCI-H23
  GI50: 83.6 µM (inactive)
HCC 2998
  GI50: 39.5 µM (inactive)
SN12C
  GI50: 30.2 µM (inactive)
SF-268
  GI50: 34.3 µM (inactive)
HL-60
  GI50: 17.7 µM (inactive)
SK-MEL-2
  GI50: > 100 µM (inactive)
SK-MEL-5
  GI50: 40.6 µM (inactive)
NCI-H460
  GI50: 38.4 µM (inactive)
DLD-1
  GI50: 29.1 µM (inactive)
IGROV-1
  GI50: 20.5 µM (inactive)
HOP-18
  GI50: > 100 µM (inactive)
U-251
  GI50: 35.7 µM (inactive)
RXF 631
  GI50: 87.3 µM (inactive)
RPMI-8226
  GI50: 33.9 µM (inactive)
SNB-75
  GI50: > 100 µM (inactive)
M14
  GI50: 34.5 µM (inactive)
SK-MEL-28
  GI50: > 100 µM (inactive)
OVCAR-5
  GI50: > 100 µM (inactive)

## CN(C)CCCNc1ccc2ncn3c4ccc(O)cc4c(=O)c1c23
ACHN
  GI50: 0.158 µM (active)
M19-MEL
  GI50: 1.53 µM (inactive)
SR
  GI50: < 0.0189 µM (active)
RXF 393
  GI50: 0.439 µM (active)
SW-620
  GI50: 0.647 µM (active)
UACC-62
  GI50: 1.2 µM (inactive)
MOLT-4
  GI50: 0.0406 µM (active)
SNB-19
  GI50: 1.24 µM (inactive)
TK-10
  GI50: 1.76 µM (inactive)
HCT-15
  GI50: 1.91 µM
UO-31
  GI50: 1.35 µM (inactive)
HOP-62
  GI50: 0.538 µM (active)
UACC-257
  GI50: 8.09 µM (inactive)
LXFL 529
  GI50: 1.87 µM (inactive)
KM-20L2
  GI50: 1.59 µM (inactive)
A498
  GI50: 0.697 µM (active)
COLO 205
  GI50: 1.11 µM (active)
A549
  GI50: 0.0721 µM (active)
KM12
  GI50: 3.14 µM (inactive)
HCT-116
  GI50: 0.458 µM (active)
CCRF-CEM
  GI50: 0.218 µM (active)
MCF7
  GI50: 0.0964 µM (active)
XF498
  GI50: 3.83 µM (inactive)
786-0
  GI50: 0.692 µM (active)
K562
  GI50: 1.35 µM (inactive)
CAKI-1
  GI50: 0.195 µM (active)
Hs-578T
  GI50: 0.541 µM (active)
OVCAR-8
  GI50: 1.07 µM (active)
T47D
  GI50: 12 µM (inactive)
DMS-273
  GI50: 0.246 µM (active)
DMS-114
  GI50: 0.334 µM (active)
NCI-H522
  GI50: 0.252 µM (active)
SK-OV-3
  GI50: 0.321 µM (active)
SF-539
  GI50: 0.506 µM (active)
OVCAR-4
  GI50: 1.55 µM (inactive)
LOX IMVI
  GI50: 0.607 µM (active)
EKVX
  GI50: 4.71 µM (inactive)
Malme-3M
  GI50: 2.83 µM (inactive)
SNB-78
  GI50: 9.73 µM (inactive)
OVCAR-3
  GI50: 3.58 µM (inactive)
SF-295
  GI50: 0.708 µM (active)
HT-29
  GI50: 1.3 µM (inactive)
HOP-92
  GI50: 0.705 µM (active)
BT-549
  GI50: 17.3 µM (inactive)
MDA-MB-435
  GI50: 4.88 µM (inactive)
NCI-H226
  GI50: 0.483 µM (active)
DU-145
  GI50: 0.638 µM (active)
NCI-H23
  GI50: 0.716 µM (active)
HCC 2998
  GI50: 4.43 µM (inactive)
SN12C
  GI50: 0.5 µM (active)
SF-268
  GI50: 0.957 µM (active)
HL-60
  GI50: 0.277 µM (active)
SK-MEL-2
  GI50: 6.21 µM (inactive)
SK-MEL-5
  GI50: 0.64 µM (active)
NCI-H460
  GI50: 0.105 µM (active)
DLD-1
  GI50: 1.4 µM (inactive)
IGROV-1
  GI50: 0.577 µM (active)
NCI/ADR-RES
  GI50: 12.4 µM (inactive)
HOP-18
  GI50: 3.86 µM (inactive)
U-251
  GI50: 0.203 µM (active)
RXF 631
  GI50: 0.318 µM (active)
PC-3
  GI50: 1.83 µM (inactive)
MDA-MB-231
  GI50: 7.46 µM (inactive)
RPMI-8226
  GI50: 1.58 µM (inactive)
SNB-75
  GI50: 0.601 µM (active)
M14
  GI50: 1.65 µM (inactive)
MDA-N
  GI50: 4.48 µM (inactive)
SK-MEL-28
  GI50: 4.71 µM (inactive)
OVCAR-5
  GI50: 3.03 µM (inactive)
